Test [1] deals with T1, Dual specificity mitogen-activated protein kinase kinase 5 (Homo sapiens) (UniProt Q13163).
T1 sequence (whole entry): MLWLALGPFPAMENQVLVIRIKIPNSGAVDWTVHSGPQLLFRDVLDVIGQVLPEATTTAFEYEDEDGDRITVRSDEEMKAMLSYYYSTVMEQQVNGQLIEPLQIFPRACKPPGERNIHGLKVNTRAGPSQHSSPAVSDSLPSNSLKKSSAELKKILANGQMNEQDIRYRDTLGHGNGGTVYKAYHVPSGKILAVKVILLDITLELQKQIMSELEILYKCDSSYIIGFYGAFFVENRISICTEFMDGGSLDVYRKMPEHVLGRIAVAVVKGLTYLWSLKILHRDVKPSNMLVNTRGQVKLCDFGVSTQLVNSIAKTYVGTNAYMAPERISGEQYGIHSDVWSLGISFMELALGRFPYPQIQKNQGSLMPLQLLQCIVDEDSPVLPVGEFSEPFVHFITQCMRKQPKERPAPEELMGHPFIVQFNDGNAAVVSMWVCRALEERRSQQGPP
The experiment in a line: Selectivity interaction (KinomeScan (DiscoverX)) EUB0001619a MAP2K5. The following applies: at 1 µM.

Test [2] addresses Serine/threonine-protein kinase PAK 6 (Homo sapiens) (UniProt Q9NQU5). The experiment in a line: Selectivity interaction (KinomeScan (DiscoverX)) EUB0000695a PAK6. The following applies: at 100 nM.
The target of test [3] is T2, Serine/threonine-protein kinase MAK (Homo sapiens) (UniProt P20794).
T2 sequence (whole entry): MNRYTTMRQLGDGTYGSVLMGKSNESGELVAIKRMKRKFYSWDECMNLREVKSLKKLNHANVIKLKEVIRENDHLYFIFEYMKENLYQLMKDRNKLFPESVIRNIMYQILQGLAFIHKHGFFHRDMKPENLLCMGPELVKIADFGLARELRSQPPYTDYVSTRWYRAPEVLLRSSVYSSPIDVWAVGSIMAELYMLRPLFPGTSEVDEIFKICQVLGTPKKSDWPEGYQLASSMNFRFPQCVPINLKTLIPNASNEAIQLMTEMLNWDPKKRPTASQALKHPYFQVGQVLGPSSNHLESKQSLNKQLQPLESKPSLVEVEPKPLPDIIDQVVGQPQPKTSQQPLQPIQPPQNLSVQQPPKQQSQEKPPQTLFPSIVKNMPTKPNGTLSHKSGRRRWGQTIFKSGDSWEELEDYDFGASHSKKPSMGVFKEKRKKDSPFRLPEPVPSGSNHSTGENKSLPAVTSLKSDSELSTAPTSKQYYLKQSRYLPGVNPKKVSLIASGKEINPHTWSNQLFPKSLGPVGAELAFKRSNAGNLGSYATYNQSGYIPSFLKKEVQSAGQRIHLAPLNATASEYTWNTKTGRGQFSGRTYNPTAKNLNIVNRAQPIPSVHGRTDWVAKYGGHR
The experiment in a line: Selectivity interaction (KinomeScan (DiscoverX)) EUB0000666a MAK. The note with it: at 10 µM.

The target of test [4] is Wee1-like protein kinase (Homo sapiens) (UniProt P30291). The note with it: at 10 µM.
Sequence of Wee1-like protein kinase (Homo sapiens) (P30291 whole entry, looked up): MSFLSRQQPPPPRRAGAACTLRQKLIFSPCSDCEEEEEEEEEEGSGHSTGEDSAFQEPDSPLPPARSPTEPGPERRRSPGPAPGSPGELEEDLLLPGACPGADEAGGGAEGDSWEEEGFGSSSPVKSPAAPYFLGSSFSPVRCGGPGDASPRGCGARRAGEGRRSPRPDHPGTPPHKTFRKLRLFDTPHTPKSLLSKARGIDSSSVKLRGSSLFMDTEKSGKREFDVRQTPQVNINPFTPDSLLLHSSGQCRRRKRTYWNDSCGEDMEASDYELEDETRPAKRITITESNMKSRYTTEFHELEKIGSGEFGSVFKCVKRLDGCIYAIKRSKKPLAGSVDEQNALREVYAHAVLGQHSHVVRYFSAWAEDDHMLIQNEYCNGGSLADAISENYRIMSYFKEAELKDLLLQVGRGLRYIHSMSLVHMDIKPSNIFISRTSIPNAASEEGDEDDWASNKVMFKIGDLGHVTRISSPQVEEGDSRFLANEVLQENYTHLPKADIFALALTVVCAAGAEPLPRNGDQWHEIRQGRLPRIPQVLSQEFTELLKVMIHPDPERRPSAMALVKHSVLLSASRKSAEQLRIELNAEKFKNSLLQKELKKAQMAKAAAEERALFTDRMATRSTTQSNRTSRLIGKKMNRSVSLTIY
Test [5] concerns the target Mitogen-activated protein kinase 3 (Homo sapiens, UniProt P27361). The experiment in a line: Selectivity interaction (Kinase panel (Invitrogen)) EUB0000639a MAPK3. The note with it: at 200 nM.
For test [6], the target named is T3, Tyrosine-protein kinase Tec (Homo sapiens) (UniProt P42680).
T3 sequence (whole entry): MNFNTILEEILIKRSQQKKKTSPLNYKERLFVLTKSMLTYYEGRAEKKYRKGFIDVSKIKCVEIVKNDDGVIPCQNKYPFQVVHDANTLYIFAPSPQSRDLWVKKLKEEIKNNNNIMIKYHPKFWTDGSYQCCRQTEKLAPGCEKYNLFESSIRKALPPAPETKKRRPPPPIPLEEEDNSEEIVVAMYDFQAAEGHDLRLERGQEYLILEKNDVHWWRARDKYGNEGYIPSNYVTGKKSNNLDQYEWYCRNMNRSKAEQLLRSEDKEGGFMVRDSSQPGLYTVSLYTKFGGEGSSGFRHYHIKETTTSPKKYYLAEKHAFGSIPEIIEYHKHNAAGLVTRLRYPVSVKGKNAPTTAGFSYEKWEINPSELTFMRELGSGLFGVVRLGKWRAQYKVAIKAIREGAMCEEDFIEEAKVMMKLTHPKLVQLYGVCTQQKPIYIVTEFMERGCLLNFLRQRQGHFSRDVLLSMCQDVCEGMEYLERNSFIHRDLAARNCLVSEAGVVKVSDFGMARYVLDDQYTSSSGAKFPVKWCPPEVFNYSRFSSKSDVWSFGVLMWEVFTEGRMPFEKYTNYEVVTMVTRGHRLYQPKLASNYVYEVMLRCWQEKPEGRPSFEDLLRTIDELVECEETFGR
The experiment in a line: Selectivity interaction (ActivX KiNativ screen (kinase selectivity in THP-1 cell lysates)) EUB0000639a TEC. The format is subcellular. The note with it: lysate, at 5 µM.

Test [7] has as its target Mitogen-activated protein kinase 9 (Homo sapiens, UniProt P45984). In words: Selectivity interaction (ActivX KiNativ screen (kinase selectivity in THP-1 cell lysates)) EUB0000639a MAPK9. The format is subcellular. The following applies: lysate, at 1 µM.
Test [8] addresses Platelet-derived growth factor receptor beta (Homo sapiens, UniProt P09619). In words: Selectivity interaction (Ambit KINOMEscan and KiNATiv profiling in Jurkat cells) EUB0000090b PDGFRB. In kind it is cell-based. The note with it: at 1 µM.
Test [9] addresses Dual specificity mitogen-activated protein kinase kinase 2 (Homo sapiens) (UniProt P36507). In words: Selectivity interaction (Ambit KINOMEscan and KiNATiv profiling in Jurkat cells) EUB0000090b MAP2K2. The format is cell-based. The following applies: at 1 µM.
Test [10] has as its target Interleukin-1 receptor-associated kinase 1 (Homo sapiens) (UniProt P51617). In words: Selectivity interaction (KinomeScan (DiscoverX)) EUB0001049a IRAK1. The note with it: at 1 µM.
The target of test [11] is cAMP-dependent protein kinase catalytic subunit alpha (Homo sapiens, UniProt P17612). In words: Selectivity interaction (Kinase panel (33PanQinase(R) Activity Assay)) EUB0000877a PRKACA.

One may read the IC50 as the concentration that gives 50% inhibition.

Sequence of Serine/threonine-protein kinase PAK 6 (Homo sapiens) (Q9NQU5 whole entry, looked up): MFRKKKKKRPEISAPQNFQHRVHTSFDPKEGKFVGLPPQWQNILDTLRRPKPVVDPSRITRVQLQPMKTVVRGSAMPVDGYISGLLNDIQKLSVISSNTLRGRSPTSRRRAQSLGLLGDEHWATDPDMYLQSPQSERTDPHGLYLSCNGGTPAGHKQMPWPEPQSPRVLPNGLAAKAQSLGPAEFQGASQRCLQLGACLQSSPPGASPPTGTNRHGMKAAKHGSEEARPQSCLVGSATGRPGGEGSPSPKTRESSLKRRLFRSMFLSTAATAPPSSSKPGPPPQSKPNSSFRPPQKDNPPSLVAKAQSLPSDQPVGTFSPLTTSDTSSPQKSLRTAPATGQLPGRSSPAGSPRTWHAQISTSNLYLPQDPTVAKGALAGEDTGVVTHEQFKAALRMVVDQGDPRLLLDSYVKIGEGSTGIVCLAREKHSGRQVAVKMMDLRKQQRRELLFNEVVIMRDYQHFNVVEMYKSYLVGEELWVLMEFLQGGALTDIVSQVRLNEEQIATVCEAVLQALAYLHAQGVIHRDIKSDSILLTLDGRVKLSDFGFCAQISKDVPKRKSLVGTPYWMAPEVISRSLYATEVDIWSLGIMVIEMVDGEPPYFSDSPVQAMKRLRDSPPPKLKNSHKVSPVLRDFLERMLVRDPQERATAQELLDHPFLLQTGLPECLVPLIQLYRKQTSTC
Sequence of Platelet-derived growth factor receptor beta (P09619 whole entry): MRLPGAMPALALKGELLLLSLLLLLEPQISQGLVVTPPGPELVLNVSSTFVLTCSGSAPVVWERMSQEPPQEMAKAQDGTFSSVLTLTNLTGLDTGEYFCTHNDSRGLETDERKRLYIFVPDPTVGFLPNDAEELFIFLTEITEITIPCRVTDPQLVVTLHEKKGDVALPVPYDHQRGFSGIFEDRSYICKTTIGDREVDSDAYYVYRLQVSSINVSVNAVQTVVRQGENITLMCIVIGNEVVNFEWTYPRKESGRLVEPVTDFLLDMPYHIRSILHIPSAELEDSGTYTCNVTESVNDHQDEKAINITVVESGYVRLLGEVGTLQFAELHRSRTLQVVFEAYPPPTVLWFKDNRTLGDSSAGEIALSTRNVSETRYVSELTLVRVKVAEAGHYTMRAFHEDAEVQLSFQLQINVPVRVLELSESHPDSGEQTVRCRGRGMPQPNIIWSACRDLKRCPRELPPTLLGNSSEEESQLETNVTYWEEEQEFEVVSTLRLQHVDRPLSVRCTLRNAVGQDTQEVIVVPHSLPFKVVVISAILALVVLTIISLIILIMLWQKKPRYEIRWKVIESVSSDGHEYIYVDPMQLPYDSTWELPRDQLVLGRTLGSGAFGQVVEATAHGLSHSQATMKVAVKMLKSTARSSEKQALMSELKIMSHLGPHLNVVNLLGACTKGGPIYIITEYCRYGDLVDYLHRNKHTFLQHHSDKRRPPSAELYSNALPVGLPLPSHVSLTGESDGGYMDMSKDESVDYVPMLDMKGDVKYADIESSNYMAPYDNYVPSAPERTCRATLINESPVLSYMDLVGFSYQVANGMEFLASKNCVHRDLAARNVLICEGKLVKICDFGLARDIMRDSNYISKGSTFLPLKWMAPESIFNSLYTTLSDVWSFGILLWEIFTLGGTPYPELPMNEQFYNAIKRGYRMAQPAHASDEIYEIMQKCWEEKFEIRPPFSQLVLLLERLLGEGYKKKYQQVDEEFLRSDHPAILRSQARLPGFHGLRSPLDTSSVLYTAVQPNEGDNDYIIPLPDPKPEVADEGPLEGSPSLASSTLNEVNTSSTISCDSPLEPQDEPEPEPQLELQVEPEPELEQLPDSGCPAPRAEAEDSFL
Sequence of Mitogen-activated protein kinase 9 (P45984 whole entry, looked up): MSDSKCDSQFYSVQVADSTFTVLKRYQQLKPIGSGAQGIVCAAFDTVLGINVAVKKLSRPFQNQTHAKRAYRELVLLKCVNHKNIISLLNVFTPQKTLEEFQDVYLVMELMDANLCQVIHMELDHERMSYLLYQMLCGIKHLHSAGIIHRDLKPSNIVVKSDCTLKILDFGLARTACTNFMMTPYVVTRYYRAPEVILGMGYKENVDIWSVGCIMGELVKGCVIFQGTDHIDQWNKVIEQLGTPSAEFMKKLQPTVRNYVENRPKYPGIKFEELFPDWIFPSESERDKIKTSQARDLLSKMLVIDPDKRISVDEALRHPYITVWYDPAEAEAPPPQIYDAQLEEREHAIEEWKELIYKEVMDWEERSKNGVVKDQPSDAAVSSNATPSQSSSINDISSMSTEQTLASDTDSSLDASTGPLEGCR
Sequence of Dual specificity mitogen-activated protein kinase kinase 2 (Homo sapiens) (P36507 whole entry): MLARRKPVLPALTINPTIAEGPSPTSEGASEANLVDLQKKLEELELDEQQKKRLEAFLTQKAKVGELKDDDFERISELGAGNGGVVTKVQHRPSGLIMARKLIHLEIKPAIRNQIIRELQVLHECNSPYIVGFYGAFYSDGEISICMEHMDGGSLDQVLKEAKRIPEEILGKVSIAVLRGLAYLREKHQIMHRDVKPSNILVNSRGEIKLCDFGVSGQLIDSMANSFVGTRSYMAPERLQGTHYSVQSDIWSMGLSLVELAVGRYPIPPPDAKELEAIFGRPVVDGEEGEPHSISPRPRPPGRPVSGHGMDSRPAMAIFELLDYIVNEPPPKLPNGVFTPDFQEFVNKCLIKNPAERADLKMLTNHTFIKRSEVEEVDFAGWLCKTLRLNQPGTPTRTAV
Sequence of Mitogen-activated protein kinase 3 (P27361 whole entry): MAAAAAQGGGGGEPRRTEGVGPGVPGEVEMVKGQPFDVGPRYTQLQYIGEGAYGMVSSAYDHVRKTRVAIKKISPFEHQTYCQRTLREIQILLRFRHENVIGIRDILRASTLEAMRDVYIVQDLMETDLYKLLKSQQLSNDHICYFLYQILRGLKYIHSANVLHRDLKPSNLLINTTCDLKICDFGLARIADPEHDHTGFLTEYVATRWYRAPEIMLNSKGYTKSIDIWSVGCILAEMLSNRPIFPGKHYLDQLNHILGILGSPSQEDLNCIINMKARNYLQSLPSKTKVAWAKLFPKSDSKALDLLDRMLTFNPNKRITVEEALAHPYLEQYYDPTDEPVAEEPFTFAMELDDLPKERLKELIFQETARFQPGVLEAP
Sequence of Interleukin-1 receptor-associated kinase 1 (Homo sapiens) (P51617 whole entry, looked up): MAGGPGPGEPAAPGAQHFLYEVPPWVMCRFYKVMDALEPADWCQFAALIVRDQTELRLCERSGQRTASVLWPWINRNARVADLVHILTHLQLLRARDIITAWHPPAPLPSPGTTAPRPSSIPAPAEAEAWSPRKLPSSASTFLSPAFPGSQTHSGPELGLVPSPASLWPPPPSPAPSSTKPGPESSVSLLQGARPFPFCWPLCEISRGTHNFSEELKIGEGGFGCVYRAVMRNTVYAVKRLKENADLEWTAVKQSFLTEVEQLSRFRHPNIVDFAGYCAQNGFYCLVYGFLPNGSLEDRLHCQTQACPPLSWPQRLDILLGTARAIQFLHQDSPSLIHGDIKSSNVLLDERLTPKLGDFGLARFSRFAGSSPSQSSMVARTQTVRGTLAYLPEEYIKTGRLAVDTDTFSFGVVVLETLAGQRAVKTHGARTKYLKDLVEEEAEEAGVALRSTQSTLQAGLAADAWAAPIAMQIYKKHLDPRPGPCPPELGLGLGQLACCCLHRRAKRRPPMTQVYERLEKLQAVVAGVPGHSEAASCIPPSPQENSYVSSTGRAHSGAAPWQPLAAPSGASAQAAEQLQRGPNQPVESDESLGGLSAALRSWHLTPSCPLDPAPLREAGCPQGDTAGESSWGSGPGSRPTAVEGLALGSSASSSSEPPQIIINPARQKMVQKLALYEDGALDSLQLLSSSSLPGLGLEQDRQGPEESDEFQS

`N#Cc1cccc(-c2c[nH]c3ncnc(N4CCOCC4)c23)c1` registered a % of control in [1] of 14%.

For the compound `Cc1cc(F)c(C(=O)Nc2cccc(-c3nncn3C(C)C)n2)cc1-n1cnc(C2CC2)c1`, the % of control in [2] worked out at 90%.

In the case of `O=C(NOC[C@H](O)CO)c1ccc(F)c(F)c1Nc1ccc(I)cc1F`, in test [3], the % of control was found to be 100%.

`Cc1cc([C@@H](C)Nc2ccccc2C(=O)O)c2nc(N3CCOCC3)cc(=O)n2c1` [AZD-6482]: in test [4], the % of control is 100%.

On to `CC[C@@H]1[C@H](F)C(=O)N[C@@H]1COc1nccc2cc(C(N)=O)c(OC)cc12` [ZIMLOVISERTIB], for which the % of inhibition was 4.09% in test [5], -18.7% in test [6] and -5.9% in [7].

`CN(C)C/C=C/C(=O)Nc1ccc(C(=O)N2CCCC(Nc3ncc(Cl)c(-c4c[nH]c5ccccc45)n3)C2)cc1` (stereo unspecified): the results for the % of control in test [8] and in test [9] were 76% and 93%, respectively.

As to `COc1cc(Nc2nc(C)cc(-c3cnn4nc(OC)ccc34)n2)cc(C(F)(F)F)c1`, the % of control in test [10] was found to be 91%.

On to `CCC(=O)N1CC[C@H](Nc2ncnc3c2CN(c2cnc(OC)c(C(F)(F)F)c2)CC3)C1` [LENIOLISIB], for which the IC50 in test [11] was more than 10 µM.
